Patent US20260152485A1, “ISOINDOLINONE DERIVATIVE HAVING QUINOLINE AMIDE STRUCTURE, AND USE THEREOF” (ONCORD BIO INC, priority 2022, published 2026)

Tests used:
[1] = tested on: NCI-H1155 (lung cancer cells); test: CytoX cell viability assay, NCI-H1155 cells; assay type: cell-based; conditions: 72 hours; for viability at 0.01 µM / viability at 0.5 µM: Homo sapiens
Experimental: The viability of NCI-H1155 (lung cancer cells) was measured using the CytoX cell viability assay kit (LPS Solution, #CYT3000). NCI-H1155 cells were seeded in a 12-well plate, and each compound of the present disclosure and a comparative compound (CC-90009) were treated at 10 nM and 500 nM concentrations for 72 hours. CytoX solution was then added to the cells and incubated for 1 hour.

[2] = tested on: KG-1 cancer cells; test: Cytotoxicity assay (WST-1), KG-1 cells; assay type: cell-based; conditions: Homo sapiens, 72 hours
Experimental: Cancer cells (KG-1) were seeded at a density of 10,000 cells per well in 96-well plates. The compound of the present disclosure and control compounds (Comparative Compounds 1, 2, and 3) were treated at predetermined concentrations. After 72 hours, the cells were treated with WST-1 reagent for 1 hour. Then, absorbance was read at 450 nm using a SpectraMax spectrophotometer to determine cell viability.

SMILES | IC50 [2] [nM] | viability at 0.01 µM ([1]; 10 nM) [%] | viability at 0.5 µM ([1]; 500 nM) [%] | other results
O=C1CCC(N2Cc3cc(CNC(=O)C(F)(F)c4ccc(Cl)cc4)ccc3C2=O)C(=O)N1 (stereo not shown) [CC-90009, reference compound] | – | – | – | NCI-H1155 (% viability) at 10 nM ([1]; 10 nM): 85.0%; NCI-H1155 (% viability) at 500 nM ([1]; 500 nM): 23.25%
O=C1CCC(N2Cc3cc(CNC(=O)c4cc(-c5ccccc5)nc5ccccc45)ccc3C2=O)C(=O)N1 (stereo not shown) [Cpd. 1, N-((2-(2,6-dioxopiperidin-3-yl)-1-oxoisoindolin-5-yl)methyl)-2-phenylquinoline-4-carboxamide] | 0.8 | – | – | –
CC(C)c1ccc(-c2cc(C(=O)NCc3ccc4c(c3)CN(C3CCC(=O)NC3=O)C4=O)c3ccccc3n2)cc1 (stereo not shown) [Cpd. 2, N-((2-(2,6-dioxopiperidin-3-yl)-1-oxoisoindolin-5-yl)methyl)-2-(4-isopropylphenyl)quinoline-4-carboxamide] | 1.5 | – | – | –
Cc1ccc2nc(-c3ccccc3)cc(C(=O)NCc3ccc4c(c3)CN(C3CCC(=O)NC3=O)C4=O)c2c1 (stereo not shown) [Cpd. 3, N-((2-(2,6-dioxopiperidin-3-yl)-1-oxoisoindolin-5-yl)methyl)-6-methyl-2-phenylquinoline-4-carboxamide] | 14 | – | – | –
Cc1cccc2c(C(=O)NCc3ccc4c(c3)CN(C3CCC(=O)NC3=O)C4=O)cc(-c3ccccc3)nc12 (stereo not shown) [Cpd. 4, N-((2-(2,6-dioxopiperidin-3-yl)-1-oxoisoindolin-5-yl)methyl)-8-methyl-2-phenylquinoline-4-carboxamide] | 1 | – | – | –
O=C1CCC(N2Cc3cc(CNC(=O)c4cc(-c5ccncc5)nc5ccccc45)ccc3C2=O)C(=O)N1 (stereo not shown) [Cpd. 7, N-((2-(2,6-dioxopiperidin-3-yl)-1-oxoisoindolin-5-yl)methyl)-2-(pyridin-4-yl)quinoline-4-carboxamide] | – | 50 | 5 | –
O=C1CCC(N2Cc3cc(CNC(=O)c4cc(Cl)nc5ccccc45)ccc3C2=O)C(=O)N1 (stereo not shown) [Cpd. 8, 2-chloro-N-((2-(2,6-dioxopiperidin-3-yl)-1-oxoisoindolin-5-yl)methyl)quinoline-4-carboxamide] | – | 86 | 23 | –
O=C1CCC(N2Cc3cc(CNC(=O)c4ccnc5ccccc45)ccc3C2=O)C(=O)N1 (stereo not shown) [Cpd. 9, N-((2-(2,6-dioxopiperidin-3-yl)-1-oxoisoindolin-5-yl)methyl)quinoline-4-carboxamide] | – | 88 | 25 | –
Cc1cccc2c(C(=O)NCc3ccc4c(c3)CN(C3CCC(=O)NC3=O)C4=O)cc(-c3cccnc3)nc12 (stereo not shown) [Cpd. 10, N-((2-(2,6-dioxopiperidin-3-yl)-1-oxoisoindolin-5-yl)methyl)-8-methyl-2-(pyridin-3-yl)quinoline-4-carboxamide] | – | 3 | 4 | –
Cc1c(-c2ccccc2)nc2ccccc2c1C(=O)NCc1ccc2c(c1)CN(C1CCC(=O)NC1=O)C2=O (stereo not shown) [Cpd. 12, N-((2-(2,6-dioxopiperidin-3-yl)-1-oxoisoindolin-5-yl)methyl)-3-methyl-2-phenylquinoline-4-carboxamide] | – | 59 | 24 | –
Cc1ccccc1-c1cc(C(=O)NCc2ccc3c(c2)CN(C2CCC(=O)NC2=O)C3=O)c2ccccc2n1 (stereo not shown) [Cpd. 13, N-((2-(2,6-dioxopiperidin-3-yl)-1-oxoisoindolin-5-yl)methyl)-2-(o-tolyl)quinoline-4-carboxamide] | – | 32 | 26 | –
O=C1CCC(N2Cc3cc(CNC(=O)c4cc(-c5ccc(F)cc5)nc5ccccc45)ccc3C2=O)C(=O)N1 (stereo not shown) [Cpd. 14, N-((2-(2,6-dioxopiperidin-3-yl)-1-oxoisoindolin-5-yl)methyl)-2-(4-fluorophenyl)quinoline-4-carboxamide] | – | 33 | 23 | –
O=C1CCC(N2Cc3cc(CNC(=O)c4cc(-c5ccccc5F)nc5ccccc45)ccc3C2=O)C(=O)N1 (stereo not shown) [Cpd. 15, N-((2-(2,6-dioxopiperidin-3-yl)-1-oxoisoindolin-5-yl)methyl)-2-(2-fluorophenyl)quinoline-4-carboxamide] | – | 31 | 26 | –
O=C1CCC(N2Cc3cc(CNC(=O)c4cc5ccccc5cn4)ccc3C2=O)C(=O)N1 (stereo not shown) [compound 1, N-((2-(2,6-dioxopiperidin-3-yl)-1-oxoisoindolin-5-yl)methyl)isoquinoline-3-carboxamide, reference compound] | > 10000 | – | – | –
O=C1CCC(N2Cc3cc(CNC(=O)c4cnc5ccccc5n4)ccc3C2=O)C(=O)N1 (stereo not shown) [compound 2, N-((2-(2,6-dioxopiperidin-3-yl)-1-oxoisoindolin-5-yl)methyl)quinolxaline-2-carboxamide, reference compound] | > 10000 | – | – | –
O=C1CCC(N2Cc3cc(CNC(=O)c4ccc5cc(Cl)ccc5n4)ccc3C2=O)C(=O)N1 (stereo not shown) [compound 3, 6-chloro-N-((2-(2,6-dioxopiperidin-3-yl)-1-oxoisoindolin-5-yl)methyl)quinoline-2-carboxamide, reference compound] | 4100 | – | – | –
